Results from article PMC6968383, “Design, synthesis, in vitro and in vivo evaluation of benzylpiperidine-linked 1,3-dimethylbenzimidazolinones as cholinesterase inhibitors against Alzheimer’s disease” (Journal of Enzyme Inhibition and Medicinal Chemistry, 2019).
Read-outs that look alike come from different tables or passages of the source.

Assays:
[1] = molecular target: T1, AChE (EC 3.1.1.7) from electric eel (Electrophorus electricus, UniProt O42275); assay: biochemical; format: biochemical; settings: for inhibition at 100 µM: read-out: AChE IR (inhibitory rate); for SI (selectivity index = AChE IC50/BChE IC50): eeAChE IC50 / eqBChE IC50
T1 construct: purchased Sigma-Aldrich
Procedure: (§1) The data were expressed as IC50 values (Table 1).
(§2) The inhibitory activities of the target compounds towards AChE (from Electrophorus electricus (electric eeAChE, Sigma-Aldrich) and horse serum BChE (eqBChE, Sigma-Aldrich) or human AChE – huAChE; human BuChE – huBuChE (huAChE, huBuChE, Sigma-Aldrich) were measured by Ellman’s method. In 96-well plates, a mixture of phosphate buffer (0.1 M, pH 8.0, […]), 5,5′-dithiobis-2-nitrobenzoic acid (DTNB, 60 µL), acetylcholinestrase or butyrylcholinesterase (20 µL, 5 IU/mL) and different concentration of the compound solution (30 µL) was pre-incubated for 5 min followed by the addition of the substrate (acetylthiocholine iodide or butyrylthiocholine iodide, 20 µL). […] The measurement of each concentration for each compound was detected in triplicate. GraphPad Prism 6.0 (GraphPad Software, Inc., La Jolla, CA) was used for data processing. The inhibition curve was fitted by plotting percentage enzyme activity (100% for the reference) versus the logarithm of the concentration of tested compound. The half-maximal inhibitory concentration (IC50) values were calculated according to the inhibition curve and the data were shown in the layout of mean ± SEM by GraphPad Prism 6.0.

[2] = molecular target: T2, BChE (EC 3.1.1.8) from horse serum (Equus caballus, UniProt P81908); assay: biochemical; settings: for inhibition at 100 µM: compound at 100 μM, read-out: BChE IR (inhibitory rate)
T2 construct: horse serum BChE (eqBChE, Sigma-Aldrich); purchased Sigma-Aldrich; host or cells: horse serum
Procedure: as §1, §2

[3] = eeAChE, mean ± SEM of triplicate independent experiments, read-out: AChE IC50
[4] = eqBChE, mean ± SEM of triplicate independent experiments, read-out: BChE IC50

T2 sequence (P81908 whole entry): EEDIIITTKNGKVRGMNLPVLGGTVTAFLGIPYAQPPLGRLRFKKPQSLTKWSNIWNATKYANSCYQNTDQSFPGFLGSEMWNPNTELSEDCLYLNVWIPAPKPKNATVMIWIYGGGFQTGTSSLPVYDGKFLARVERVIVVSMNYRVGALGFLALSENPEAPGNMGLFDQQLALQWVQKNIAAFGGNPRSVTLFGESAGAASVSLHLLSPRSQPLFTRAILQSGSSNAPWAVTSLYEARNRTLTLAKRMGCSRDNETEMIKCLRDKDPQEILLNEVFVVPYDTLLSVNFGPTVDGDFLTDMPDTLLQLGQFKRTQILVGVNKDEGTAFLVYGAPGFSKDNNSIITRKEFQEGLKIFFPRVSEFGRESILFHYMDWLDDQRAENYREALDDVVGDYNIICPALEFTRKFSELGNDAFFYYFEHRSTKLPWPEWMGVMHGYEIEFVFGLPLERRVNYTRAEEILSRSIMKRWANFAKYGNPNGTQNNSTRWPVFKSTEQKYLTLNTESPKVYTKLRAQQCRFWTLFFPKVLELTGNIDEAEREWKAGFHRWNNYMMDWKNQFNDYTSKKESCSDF
T1 sequence (O42275 24-633): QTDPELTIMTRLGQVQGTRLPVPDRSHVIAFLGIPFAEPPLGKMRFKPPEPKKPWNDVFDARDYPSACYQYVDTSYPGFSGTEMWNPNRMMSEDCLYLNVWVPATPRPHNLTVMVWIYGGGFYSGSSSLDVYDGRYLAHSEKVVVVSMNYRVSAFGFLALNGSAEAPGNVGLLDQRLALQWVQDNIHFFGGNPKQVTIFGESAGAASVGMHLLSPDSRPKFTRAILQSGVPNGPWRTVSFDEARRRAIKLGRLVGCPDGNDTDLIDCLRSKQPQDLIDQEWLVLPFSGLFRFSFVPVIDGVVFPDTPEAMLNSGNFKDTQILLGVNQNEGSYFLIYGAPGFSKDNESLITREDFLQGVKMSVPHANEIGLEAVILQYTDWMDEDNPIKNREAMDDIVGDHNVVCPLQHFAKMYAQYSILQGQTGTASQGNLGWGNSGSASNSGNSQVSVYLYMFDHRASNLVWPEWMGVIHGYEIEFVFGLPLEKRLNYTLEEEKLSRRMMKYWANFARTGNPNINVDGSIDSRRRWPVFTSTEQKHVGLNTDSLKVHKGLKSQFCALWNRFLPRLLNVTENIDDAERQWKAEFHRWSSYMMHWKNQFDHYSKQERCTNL

| Structure (SMILES) | IC50 [1, 3] | inhibition at 100 µM ([2]; eqBChE) | further results |
| --- | --- | --- | --- |
| Cn1c(=O)n(C)c2cc(C(=O)NCC3CCN(Cc4ccccc4)CC3)ccc21 [Compound 9a, N-((1-benzylpiperidin-4-yl)methyl)-1,3-dimethyl-2-oxo-2,3-dihydro-1H-benzo[d]imidazole-5-carboxamide] | 3.14 ± 1.12 µM | 43.9% | – |
| Cc1ccccc1CN1CCC(CNC(=O)c2ccc3c(c2)n(C)c(=O)n3C)CC1 [Compound 9b, 1,3-dimethyl-N-((1–(2-methylbenzyl)piperidin-4-yl)methyl)-2-oxo-2,3-dihydro-1H-benzo[d]imidazole-5-carboxamide] | 8.08 ± 2.66 µM | 41.4% | – |
| Cc1cccc(CN2CCC(CNC(=O)c3ccc4c(c3)n(C)c(=O)n4C)CC2)c1 [Compound 9c, 1,3-dimethyl-N-((1–(3-methylbenzyl)piperidin-4-yl)methyl)-2-oxo-2,3-dihydro-1H-benzo[d]imidazole-5-carboxamide] | 3.83 ± 2.04 µM | 44% | – |
| Cc1ccc(CN2CCC(CNC(=O)c3ccc4c(c3)n(C)c(=O)n4C)CC2)cc1 [Compound 9d, 1,3-dimethyl-N-((1–(4-methylbenzyl)piperidin-4-yl)methyl)-2-oxo-2,3-dihydro-1H-benzo[d]imidazole-5-carboxamide] | 25.7 ± 12.3 µM | 37.8% | – |
| Cc1ccc(CN2CCC(CNC(=O)c3ccc4c(c3)n(C)c(=O)n4C)CC2)cc1C [Compound 9e, N-((1–(3,4-dimethylbenzyl)piperidin-4-yl)methyl)-1,3-dimethyl-2-oxo-2,3-dihydro-1H-benzo[d]imidazole-5-carboxamide] | 9.97 ± 2.52 µM | 30.8% | – |
| COc1cccc(CN2CCC(CNC(=O)c3ccc4c(c3)n(C)c(=O)n4C)CC2)c1 [Compound 9f, N-((1–(3-methoxybenzyl)piperidin-4-yl)methyl)-1,3-dimethyl-2-oxo-2,3-dihydro-1H-benzo[d]imidazole-5-carboxamide] | – | 25% | inhibition at 100 µM [1]: 33.5% |
| COc1ccc(CN2CCC(CNC(=O)c3ccc4c(c3)n(C)c(=O)n4C)CC2)cc1 [Compound 9g, N-((1–(4-methoxybenzyl)piperidin-4-yl)methyl)-1,3-dimethyl-2-oxo-2,3-dihydro-1H-benzo[d]imidazole-5-carboxamide] | 5.17 ± 2.25 µM | 41.5% | – |
| Cn1c(=O)n(C)c2cc(C(=O)NCC3CCN(Cc4ccccc4F)CC3)ccc21 [Compound 9h, N-((1–(2-fluorobenzyl)piperidin-4-yl)methyl)-1,3-dimethyl-2-oxo-2,3-dihydro-1H-benzo[d]imidazole-5-carboxamide] | 16.2 ± 4.34 µM | 30% | – |
| Cn1c(=O)n(C)c2cc(C(=O)NCC3CCN(Cc4cccc(F)c4)CC3)ccc21 [Compound 9i, N-((1–(3-fluorobenzyl)piperidin-4-yl)methyl)-1,3-dimethyl-2-oxo-2,3-dihydro-1H-benzo[d]imidazole-5-carboxamide] | 2.93 ± 1.96 µM | – | IC50 [2, 4]: 95.1 ± 59.3 µM |
| Cn1c(=O)n(C)c2cc(C(=O)NCC3CCN(Cc4ccc(F)cc4)CC3)ccc21 [Compound 9j, N-((1–(4-fluorobenzyl)piperidin-4-yl)methyl)-1,3-dimethyl-2-oxo-2,3-dihydro-1H-benzo[d]imidazole-5-carboxamide] | 4.7 ± 2.01 µM | – | SI (selectivity index = AChE IC50/BChE IC50) [1]: 1.27; IC50 [2, 4]: 3.71 ± 1.88 µM |
| Cn1c(=O)n(C)c2cc(C(=O)NCC3CCN(Cc4ccccc4Cl)CC3)ccc21 [Compound 9k, N-((1–(2-chlorobenzyl)piperidin-4-yl)methyl)-1,3-dimethyl-2-oxo-2,3-dihydro-1H-benzo[d]imidazole-5-carboxamide] | 3.92 ± 1.2 µM | 46.5% | – |
| Cn1c(=O)n(C)c2cc(C(=O)NCC3CCN(Cc4cccc(Cl)c4)CC3)ccc21 [Compound 9l, N-((1–(3-chlorobenzyl)piperidin-4-yl)methyl)-1,3-dimethyl-2-oxo-2,3-dihydro-1H-benzo[d]imidazole-5-carboxamide] | 6 ± 3.31 µM | 36.9% | – |
| Cn1c(=O)n(C)c2cc(C(=O)NCC3CCN(Cc4ccc(Cl)cc4)CC3)ccc21 [Compound 9m, N-((1–(4-chlorobenzyl)piperidin-4-yl)methyl)-1,3-dimethyl-2-oxo-2,3-dihydro-1H-benzo[d]imidazole-5-carboxamide] | 0.21 ± 0.03 µM | 49.9% | fold increase of inhibitory activity towards AChE compared to 9a ([1]; eeAChE): 15 fold |
| Cn1c(=O)n(C)c2cc(C(=O)NCC3CCN(Cc4ccccc4Br)CC3)ccc21 [Compound 9n, N-((1–(2-bromobenzyl)piperidin-4-yl)methyl)-1,3-dimethyl-2-oxo-2,3-dihydro-1H-benzo[d]imidazole-5-carboxamide] | 8.87 ± 4.56 µM | 43.5% | – |
| Cn1c(=O)n(C)c2cc(C(=O)NCC3CCN(Cc4cccc(Br)c4)CC3)ccc21 [Compound 9o, N-((1–(3-bromobenzyl)piperidin-4-yl)methyl)-1,3-dimethyl-2-oxo-2,3-dihydro-1H-benzo[d]imidazole-5-carboxamide] | 3.69 ± 1.83 µM | 42.8% | – |
| Cn1c(=O)n(C)c2cc(C(=O)NCC3CCN(Cc4ccc(Br)cc4)CC3)ccc21 [Compound 9p, N-((1–(4-bromobenzyl)piperidin-4-yl)methyl)-1,3-dimethyl-2-oxo-2,3-dihydro-1H-benzo[d]imidazole-5-carboxamide] | 11.1 ± 6.42 µM | 38.5% | – |
| COc1ccc(CN2CCC(CNC(=O)c3ccc4[nH]ccc4c3)CC2)cc1 [Compound 11a, N-((1–(4-methoxybenzyl)piperidin-4-yl)methyl)-1H-indole-5-carboxamide] | – | – | IC50 [1]: 38.1 ± 12.8 µM; SI (selectivity index = AChE IC50/BChE IC50) [1]: 3.54; IC50 [2]: 10.8 ± 5.55 µM |
| COc1ccc(CN2CCC(CNC(=O)c3ccc4[nH]ncc4c3)CC2)cc1 [Compound 11b, N-((1–(4-methoxybenzyl)piperidin-4-yl)methyl)-1H-indazole-5-carboxamide] | – | 44.6% | inhibition at 100 µM [1]: 48.6% |
| O=C(NCC1CCN(Cc2ccccc2Cl)CC1)c1ccc2[nH]ncc2c1 [Compound 11c, N-((1–(2-chlorobenzyl)piperidin-4-yl)methyl)-1H-indazole-5-carboxamide] | – | – | IC50 [1]: 5.44 ± 2.22 µM; SI (selectivity index = AChE IC50/BChE IC50) [1]: 0.26; IC50 [2]: 21.3 ± 5 µM |
| COc1ccc(CN2CCC(CNC(=O)c3ccc4[nH]cnc4c3)CC2)cc1 [Compound 11d, N-((1–(4-methoxybenzyl)piperidin-4-yl)methyl)-1H-benzo[d]imidazole-5-carboxamide] | – | 16.5% | inhibition at 100 µM [1]: 18.8% |
| O=C(NCC1CCN(Cc2ccccc2Cl)CC1)c1ccc2[nH]cnc2c1 [Compound 11e, N-((1–(2-chlorobenzyl)piperidin-4-yl)methyl)-1H-benzo[d]imidazole-5-carboxamide] | – | 42.1% | IC50 [1]: 7.48 ± 3.1 µM |
| O=C(NCC1CCN(Cc2ccccc2)CC1)c1ccc2[nH]nnc2c1 [Compound 11f, N-((1-benzylpiperidin-4-yl)methyl)-1H-benzo[d][1,2,3]triazole-5-carboxamide] | – | 43.1% | IC50 [1]: 0.46 ± 0.4 µM |
| Cn1c(=O)n(C)c2cc(S(=O)(=O)NCC3CCN(Cc4ccccc4)CC3)ccc21 [Compound 15a, N-((1-benzylpiperidin-4-yl)methyl)-1,3-dimethyl-2-oxo-2,3-dihydro-1H-benzo[d]imidazole-5-sulphonamide] | 0.38 ± 0.08 µM | – | SI (selectivity index = AChE IC50/BChE IC50) [1]: 0.84; IC50 [2, 4]: 0.45 ± 0.02 µM |
